Structure (SMILES)	melting point
CNC(=NS(=O)(=O)N1CCOCC1)N1CC(c2c(F)cccc2F)C(c2ccc(Cl)cc2)=N1 (centres unmarked) [Example 79, 3-(4-Chlorophenyl)-4-(2,6-difluorophenyl)-N-methyl-N′-((morpholin-4-yl)sulfonyl)-4,5-dihydro-1H-pyrazole-1-carboxamidine]	223 to 235 °C
CNC(=NS(=O)(=O)N(C)C)N1CC(c2c(F)cccc2F)C(c2ccc(Cl)cc2)=N1 (centres unmarked) [Example 80, 3-(4-Chlorophenyl)-4-(2,6-difluorophenyl)-N′-((dimethylamino)sulfonyl)-N-methyl-4,5-dihydro-1H-pyrazole-1-carboxamidine]	214 to 216 °C
CNC(=NS(=O)(=O)N1CCCCC1)N1CC(c2c(F)cccc2F)C(c2ccc(Cl)cc2)=N1 (centres unmarked) [Example 81, 3-(4-Chlorophenyl)-4-(2,6-difluorophenyl)-N-methyl-N′-((piperidin-1-yl)sulfonyl)-4,5-dihydro-1H-pyrazole-1-carboxamidine]	260 to 263 °C
CNC(=NS(=O)(=O)N1CCCCC1)N1CC(c2cccc(F)c2)C(c2ccc(Cl)cc2)=N1 (centres unmarked) [Example 82, 3-(4-Chlorophenyl)-4-(3-fluorophenyl)-N-methyl-N′-((piperidin-1-yl)sulfonyl)-4,5-dihydro-1H-pyrazole-1-carboxamidine]	170 °C
CNC(=NS(=O)(=O)N1CCCCC1)N1CC(c2ccccc2F)C(c2ccc(Cl)cc2)=N1 (centres unmarked) [Example 83, 3-(4-Chlorophenyl)-4-(2-fluorophenyl)-N-methyl-N′-((piperidin-1-yl)sulfonyl)-4,5-dihydro-1H-pyrazole-1-carboxamidine]	223 to 225 °C
CNC(=NS(=O)(=O)N(C)C)N1CC(c2ccccc2F)C(c2ccc(Cl)cc2)=N1 (centres unmarked) [Example 84, 3-(4-Chlorophenyl)-N′-((dimethylamino)sulfonyl)-4-(2-fluorophenyl)-N-methyl-4,5-dihydro-1H-pyrazole-1-carboxamidine]	173 to 175 °C
CNC(=NS(=O)(=O)N(C)C)N1CC(c2cccc(F)c2)C(c2ccc(Cl)cc2)=N1 (centres unmarked) [Example 85, 3-(4-Chlorophenyl)-N′-((dimethylamino)sulfonyl)-4-(3-fluorophenyl)-N-methyl-4,5-dihydro-1H-pyrazole-1-carboxamidine]	110 °C
CNC(=NS(=O)(=O)N1CCOCC1)N1CC(c2ccccc2F)C(c2ccc(Cl)cc2)=N1 (centres unmarked) [Example 86, 3-(4-Chlorophenyl)-4-(2-fluorophenyl)-N-methyl-N′-((morpholin-4-yl)sulfonyl)-4,5-dihydro-1H-pyrazole-1-carboxamidine]	165 to 168 °C
CNC(=NS(=O)(=O)N1CCC(O)CC1)N1CC(c2ccccc2)C(c2ccc(Cl)cc2)=N1 (centres unmarked) [Example 88, 3-(4-Chlorophenyl)-N′-((4-hydroxypiperidin-1-yl)sulfonyl)-N-methyl-4-phenyl-4,5-dihydro-1H-pyrazole-1-carboxamidine]	80 °C
CCN(CCN(C)C)S(=O)(=O)N=C(SC)N1CC(c2ccccc2)C(c2ccc(Cl)cc2)=N1 (centres unmarked) [Example 95, 3-(4-Chlorophenyl)-N-(((2-(dimethylamino)ethyl)ethylamino)sulfonyl)-4-phenyl-4,5-dihydro-1H-pyrazole-1-carboximidothioic acid methyl ester]	158 °C
CSC(=NS(=O)(=O)N1CCC(N2CCCCC2)CC1)N1CC(c2ccccc2)C(c2ccc(Cl)cc2)=N1 (centres unmarked) [Example 97, 3-(4-Chlorophenyl)-N-(([1,4′]bipiperidin-1′-yl)sulfonyl)-4-phenyl-4,5-dihydro-1H-pyrazole-1-carboximidothioic acid methyl ester]	245 °C

Reference: US7608718B2, “4,5-dihydro-1H-pyrazole derivatives having potent CB1-antagonistic activity” (Solvay Pharmaceuticals B.V., priority 2001, dated 2009)
